# Laboratory results taken from PMC10233829 (ACS Omega, 2023).
# Like-named read-outs stand apart in the source and are kept apart here.
# Experiments:
# S. aureus NCTC 4163 = assay: MIC, twofold microdilution, standard strain; assay type: cell-based; details: Staphylococcus aureus, NCTC4163, 18 h
# S. aureus ATCC 25923 = assay: MIC, twofold microdilution, standard strain; assay type: cell-based; details: Staphylococcus aureus, ATCC25923, 18 h
# S. aureus ATCC 6538 = assay: MIC, twofold microdilution, standard strain; assay type: cell-based, Staphylococcus aureus; details: Staphylococcus aureus, ATCC6538; standard strain, 18 h
# S. aureus ATCC 29213 = assay: MIC, twofold microdilution, standard strain; assay type: cell-based; details: Staphylococcus aureus, ATCC29213, 18 h
# [1] = test system: S. epidermidis ATCC 12228; assay: MIC, twofold microdilution, standard strain; assay type: cell-based; details: Staphylococcus epidermidis, ATCC12228, 18 h
# [2] = test system: S. epidermidis ATCC 35984; assay: MIC, twofold microdilution, standard strain; assay type: cell-based; details: Staphylococcus epidermidis, ATCC35984, 18 h
# P. aeruginosa ATCC 15442 = assay: MIC, twofold microdilution, standard strain; assay type: cell-based, Pseudomonas aeruginosa; details: Pseudomonas aeruginosa, ATCC15442; standard strain, 18 h
# E. coli ATCC 25922 = assay: MIC, twofold microdilution, standard strain; assay type: cell-based, Escherichia coli; details: Escherichia coli, ATCC25922; standard strain, 18 h
# S. aureus 180 = assay: MIC, twofold microdilution, clinical strain; assay type: cell-based; details: Staphylococcus aureus, 18 h
# S. aureus 5595 = assay: MIC, twofold microdilution, clinical strain; assay type: cell-based; details: Staphylococcus aureus, 18 h
# S. aureus T5595 = assay: MIC, twofold microdilution, clinical strain; assay type: cell-based, Staphylococcus aureus; details: for MIC: Staphylococcus aureus, T5595, 18 h
# S. aureus T5591 = assay: MIC, twofold microdilution, clinical strain; assay type: cell-based, Staphylococcus aureus; details: for MIC: Staphylococcus aureus, T5591, 18 h
# S. epidermidis 4341 = assay: MIC, twofold microdilution, clinical strain; assay type: cell-based; details: Staphylococcus epidermidis, 18 h
# S. epidermidis 5253 = assay: MIC, twofold microdilution, clinical strain; assay type: cell-based, Staphylococcus epidermidis; details: for MIC: Staphylococcus epidermidis, 5253, 18 h
# S. epidermidis KR4243/1 = assay: MIC, twofold microdilution, clinical strain; assay type: cell-based; details: Staphylococcus epidermidis, 18 h
# S. pasteuri KR 4358 = assay: MIC, twofold microdilution, clinical strain; assay type: cell-based; details: Staphylococcus pasteuri, KR4358, 18 h
# P. aeruginosa 37 = assay: MIC, twofold microdilution, clinical strain; assay type: cell-based; details: Pseudomonas aeruginosa, 18 h
# P. aeruginosa 659 = assay: MIC, twofold microdilution, clinical strain; assay type: cell-based; details: Pseudomonas aeruginosa, 18 h
# E. coli 951 = assay: MIC, twofold microdilution, clinical strain; assay type: cell-based; details: Escherichia coli, 18 h
# E. coli 520 = assay: MIC, twofold microdilution, clinical strain; assay type: cell-based; details: Escherichia coli, 18 h
# E. coli 600 = assay: MIC, twofold microdilution, clinical strain; assay type: cell-based, Escherichia coli; details: Escherichia coli, 600, 18 h
# E. cloacae 8 = assay: MIC, twofold microdilution, clinical strain; assay type: cell-based, Escherichia cloacae; details: Enterobacter cloacae, 8; clinical strain, 18 h
# K. pneumoniae 28 = assay: MIC, twofold microdilution, clinical strain; assay type: cell-based; details: Klebsiella pneumoniae, 18 h
# K. pneumoniae 510 = assay: MIC, twofold microdilution, clinical strain; assay type: cell-based, Klebsiella pneumoniae; details: Klebsiella pneumoniae, 510; clinical strain, 18 h
# M. tuberculosis H37Rv = assay: Tuberculostatic activity, Microplate Alamar Blue Assay (MIC); assay type: cell-based, Mycobacterium tuberculosis; details: Mycobacterium tuberculosis, H37RV, read-out: MIC M. tuberculosis H37Rv
# [3] = test system: M. tuberculosis Spec. 192; assay: as above; assay type: cell-based; details: Mycobacterium tuberculosis, MABA, read-out: MIC M. tuberculosis Spec. 192 (sensitive to tuberculostatics)
# PC3 cells = assay: MTT assay, cytotoxic activity; assay type: cell-based, human; details: Homo sapiens, PC-3, 72 h, MTT, 72 h
# Protocol: Metastatic prostate cancer (PC3) and human immortal keratinocyte (HaCaT) cell lines were purchased from the American Type Culture Collection (ATCC, Rockville, MD, USA) and cultured in MEM (minimal essential medium, Thermo Sci, USA), RPMI 1640 (Roswell Park Memorial Institute, Biowest SAS, France), and DMEM (Dulbecco’s Modified Eagle’s Medium, Biowest SAS, France). Cells were seeded in 6 mL medium in a tissue culture flask (50 mL) in a 37 °C/5% CO2 humidified incubator. […] MTT analysis was performed according to a previous study.[59] Untreated cells were used as controls. Cell absorbance results were inserted into the formula for the relative MTT level (%). It allows to calculate the viability of cells under the influence of the tested compounds. Cell viability was expressed as the percentage of MTT reduction in cells treated with tested compounds compared to the control sample. The relative MTT level was calculated using the formula [100%] = A/B × 100% where A—the test sample absorbance and B—the control sample absorbance.
# [4] = MTT assay, cytotoxic activity; assay type: cell-based; details: human
# Protocol: Cells were seeded in 6 mL medium in a tissue culture flask (50 mL) in a 37 °C/5% CO2 humidified incubator. […] MTT analysis was performed according to a previous study.[59] Untreated cells were used as controls. Cell absorbance results were inserted into the formula for the relative MTT level (%). It allows to calculate the viability of cells under the influence of the tested compounds. Cell viability was expressed as the percentage of MTT reduction in cells treated with tested compounds compared to the control sample. The relative MTT level was calculated using the formula [100%] = A/B × 100% where A—the test sample absorbance and B—the control sample absorbance.
# [5] = test system: clinical bacterial strains; assay: MIC, clinical isolates as groups of strains; assay type: cell-based
# [6] = test system: Staphylococci (standard strains); assay: MIC, standard Gram-positive strains as a panel; assay type: cell-based, S. aureus, S. epidermidis; details: standard Gram-positive strains of Table 1; read-out: MIC toward standard Staphylococci (range over strains)
# [7] = HaCaT cells (immortal keratinocytes), MTT, 72 h, normal cell line, read-out: IC50 HaCaT
Compound,MIC (S. aureus NCTC 4163) [µg/mL],MIC (S. aureus ATCC 25923) [µg/mL],MIC (S. aureus ATCC 6538) [µg/mL],MIC (S. aureus ATCC 29213) [µg/mL],MIC [1] [µg/mL],MIC [2] [µg/mL],MIC (P. aeruginosa ATCC 15442) [µg/mL],MIC (E. coli ATCC 25922) [µg/mL],MIC (S. aureus 180) [µg/mL],MIC (S. aureus 5595) [µg/mL],MIC (S. aureus T5595) [µg/mL],MIC (S. aureus T5591) [µg/mL],MIC (S. epidermidis 4341) [µg/mL],MIC (S. epidermidis 5253) [µg/mL],MIC (S. epidermidis KR4243/1) [µg/mL],MIC (S. pasteuri KR 4358) [µg/mL],MIC (P. aeruginosa 37) [µg/mL],MIC (M. tuberculosis H37Rv; MABA) [µg/mL],MIC [3] [µg/mL],IC50 (PC3 cells) [µM],further results
"O=C(O)c1cn(C2CC2)c2cc(N3CCN(C(=O)CC(F)(F)F)CC3)c(F)cc2c1=O [Compound 14, 7-[4-(3,3,3-Trifluoropropionyl)-piperazin-1-yl]-1-cyclopropyl-6-fluoro-4-oxo-1,4-dihydro-quinoline-3-carboxylic Acid]",0.4,0.4,0.4,0.4,0.4,0.4,> 25.6,0.8,0.5,0.5,0.1 to 0.2,0.1 to 0.2,> 25.6,> 25.6,0.1,0.2,> 25.6,64,64,63.4 ± 5.3,"MIC S. aureus T5595 (S. aureus T5595; 18 h): 0.2 µg/mL; MIC S. aureus T5591 (S. aureus T5591; 18 h): 0.2 µg/mL; MIC (P. aeruginosa 659): > 25.6 µg/mL; MIC (E. coli 951): > 25.6 µg/mL; MIC (E. coli 520): 0.4 µg/mL; MIC (E. coli 600): 0.8 µg/mL; MIC (E. cloacae 8): 2 µg/mL; MIC (K. pneumoniae 28): > 25.6 µg/mL; MIC (K. pneumoniae 510): > 25.6 µg/mL; IC50 at 72 h [4, 7]: > 100 µM; times more powerful than CP ([5]; S. aureus T5595 and T5591): 1.25–2.5 times; MIC ([5]; clinical strains, read-out: MIC against selected E. coli and E. cloacae strains): 0.1 to 0.8 µg/mL"
"O=C(O)c1cn(C2CC2)c2cc(N3CCN(CC(=O)N4CCN(c5cc6c(cc5F)c(=O)c(C(=O)O)cn6C5CC5)CC4)CC3)c(F)cc2c1=O [Compound 17, CP–Acetyl–CP Dimer]",0.4,1.6,0.2,0.8,0.2,0.4,> 25.6,6.4,1.6,0.4,0.8,1.6,25.6,12.8 to 25.6,0.2,1.6,> 25.6,32,32,88.4 ± 10.6,"MIC S. epidermidis 5253 (S. epidermidis 5253; 18 h): 25.6 µg/mL; MIC (P. aeruginosa 659): > 25.6 µg/mL; MIC (E. coli 951): > 25.6 µg/mL; MIC (E. coli 520): 3.2 µg/mL; MIC (E. coli 600): 12.8 µg/mL; MIC (E. cloacae 8): 25.6 µg/mL; MIC (K. pneumoniae 28): > 25.6 µg/mL; MIC (K. pneumoniae 510): > 25.6 µg/mL; IC50 at 72 h [4, 7]: 41.3 ± 5.2 µM; MIC [6]: 0.2 to 1.6 µg/mL"
"O=C(O)c1cn(C2CC2)c2cc(N3CCN(CCCCCC(=O)N4CCN(c5cc6c(cc5F)c(=O)c(C(=O)O)cn6C5CC5)CC4)CC3)c(F)cc2c1=O [Compound 20, CP–Hexanoyl–CP Dimer]",1.6,1.6,1.6,1.6,1.6,1.6,> 25.6,6.4,1,1,0.8,0.8,> 25.6,> 25.6,0.8,0.8,> 25.6,32,16,69.9 ± 7.2,"MIC (P. aeruginosa 659): > 25.6 µg/mL; MIC (E. coli 951): > 25.6 µg/mL; MIC (E. coli 520): 12.8 µg/mL; MIC (E. coli 600): 12.8 µg/mL; MIC (E. cloacae 8): > 25.6 µg/mL; MIC (K. pneumoniae 28): > 25.6 µg/mL; MIC (K. pneumoniae 510): > 25.6 µg/mL; IC50 at 72 h [4, 7]: 89.5 ± 5.9 µM"
"COc1cccc2c1C(=O)c1c(O)c3c(c(O)c1C2=O)C[C@@](O)(C(=O)CO)C[C@@H]3O[C@H]1C[C@H](N)[C@H](O)[C@H](C)O1 [doxorubicin, reference compound]",–,–,–,–,–,–,–,–,–,–,–,–,–,–,–,–,–,–,–,0.3 ± 0.12,IC50 at 72 h [4]: 0.3 ± 0.11 µM
"CC[C@@H](CO)NCCN[C@@H](CC)CO [ethambutol(EMB), ethambutol, reference compound]",–,–,–,–,–,–,–,–,–,–,–,–,–,–,–,–,–,2,2,–,–
"NNC(=O)c1ccncc1 [isoniazid (INH), isoniazid, reference compound]",–,–,–,–,–,–,–,–,–,–,–,–,–,–,–,–,–,–,0.125,–,MIC (M. tuberculosis H37Rv): 0.125 µg/mL
"CO[C@H]1/C=C/O[C@@]2(C)Oc3c(C)c(O)c4c(O)c(c(/C=N/N5CCN(C)CC5)c(O)c4c3C2=O)NC(=O)/C(C)=C\C=C\[C@H](C)[C@H](O)[C@@H](C)[C@@H](O)[C@@H](C)[C@H](OC(C)=O)[C@@H]1C [rifampicin (RMP), rifampicin, reference compound]",–,–,–,–,–,–,–,–,–,–,–,–,–,–,–,–,–,1,1,–,–
"[H]/N=C(/N)N[C@H]1[C@H](O)[C@@H](O)[C@H](O[C@@H]2O[C@@H](C)[C@](O)(C=O)[C@H]2O[C@@H]2O[C@@H](CO)[C@H](O)[C@@H](O)[C@@H]2NC)[C@@H](N/C(N)=N\[H])[C@@H]1O [streptomycin (SM), streptomycin, reference compound]",–,–,–,–,–,–,–,–,–,–,–,–,–,–,–,–,–,1,1,–,–
